{"source": "patent US20250228865A1", "about": "“COMPOUNDS FOR ENHANCING READ THROUGH OF GENES CONTAINING PREMATURE TERMINATION CODONS AND METHODS FOR MAKING AND USING THE SAME” (Sanofi US Services Inc., priority 2022, published 2025)", "key": {"[1]": {"tested_on": "recombinant human CFTR carrying the premature stop codon (PTC) mutation G542X", "test": "CFTR-PTC mutant translation readthrough, Nanoluc tagged CFTR luminescence (G542X cell line)", "assay_type": "cell-based", "conditions": "in combination with G418, G542X cell line; for CFTR G542X ACTIVITY Fold 10 μM G-418: fold over 10 μM G-418; for pEC50: 16HBE cells", "in_short": "(§1)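 16HBE cells stably expressing Nanoluc-tagged human CFTR with G542X or R1162X, in medium with 3 μM VX-809, treated 48 h at 37 °C with compound (10-point, 2-fold, top 50 μM final) alone or with 10 μM G418. Live-cell Nanoluc luminescence normalised to a maximally effective G418 (125-250 μM).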"}, "[2]": {"tested_on": "recombinant human CFTR carrying the premature stop codon (PTC) mutation R1162X", "test": "CFTR-PTC mutant translation readthrough, Nanoluc tagged CFTR luminescence (R1162X cell line)", "assay_type": "cell-based", "conditions": "for CFTR R1162X ACTIVITY Fold 10 μM G-418: fold over 10 μM G-418, in combination with G418; for pEC50: in combination with G418, 16HBE cells, read-out: CFTR R1162X ACTIVITY EC50", "in_short": "as §1"}}, "note": "pEC50: −log10 of the molar value."}
{"compound": "Cc1cccc(C(F)(F)F)c1COc1cnc(N2CC[C@@H](C(N)=O)C2)nc1", "values": [{"measurement": "CFTR G542X ACTIVITY Fold 10 μM G-418", "setting": "[1]", "value": "A′ (A′ = ≥10X)"}, {"measurement": "pEC50", "setting": "[1]", "value": "5.00 to 6.00"}, {"measurement": "CFTR R1162X ACTIVITY Fold 10 μM G-418", "setting": "[2]", "value": "A′ (A′ = ≥10X)"}, {"measurement": "pEC50", "setting": "[2]", "value": "5.00 to 6.00"}]}
{"compound": "Cn1cc(-c2ccc(OCc3c(Cl)cccc3Cl)cn2)nn1", "note": "[5-[(2,6-dichlorophenyl)methoxy]-2-(1-methyltriazol-4-yl)pyridine]", "values": [{"measurement": "CFTR G542X ACTIVITY Fold 10 μM G-418", "setting": "[1]", "value": "A′ (A′ = ≥10X)"}, {"measurement": "pEC50", "setting": "[1]", "value": "5.00 to 6.00"}, {"measurement": "CFTR R1162X ACTIVITY Fold 10 μM G-418", "setting": "[2]", "value": "A′ (A′ = ≥10X)"}, {"measurement": "pEC50", "setting": "[2]", "value": "5.00 to 6.00"}]}
{"compound": "O=C1OC(CO)CN1c1ccc(OCc2c(Cl)cccc2Cl)cc1", "note": "(stereo not shown) [3-[4-[(2,6-dichlorophenyl)methoxy]phenyl]-5-(hydroxymethyl)oxazolidin-2-one]", "values": [{"measurement": "CFTR G542X ACTIVITY Fold 10 μM G-418", "setting": "[1]", "value": "B′ (B′ = ≥5X to <10X)"}, {"measurement": "pEC50", "setting": "[1]", "value": "5.00 to 6.00"}, {"measurement": "CFTR R1162X ACTIVITY Fold 10 μM G-418", "setting": "[2]", "value": "B′ (B′ = ≥5X to <10X)"}, {"measurement": "pEC50", "setting": "[2]", "value": "5.00 to 6.00"}]}
{"compound": "OCC1CCCN(c2ncc(OCc3c(Cl)cccc3Cl)cn2)C1", "note": "(stereo not shown) [[1-[5-[(2,6-dichlorophenyl)methoxy]pyrimidin-2-yl]-3-piperidyl]methanol]", "values": [{"measurement": "CFTR G542X ACTIVITY Fold 10 μM G-418", "setting": "[1]", "value": "A′ (A′ = ≥10X)"}, {"measurement": "pEC50", "setting": "[1]", "value": "5.00 to 6.00"}, {"measurement": "CFTR R1162X ACTIVITY Fold 10 μM G-418", "setting": "[2]", "value": "A′ (A′ = ≥10X)"}, {"measurement": "pEC50", "setting": "[2]", "value": "5.00 to 6.00"}]}
{"compound": "OCc1ncn(-c2ccc(OCc3c(Cl)cccc3OC(F)F)cc2)n1", "values": [{"measurement": "CFTR G542X ACTIVITY Fold 10 μM G-418", "setting": "[1]", "value": "A′ (A′ = ≥10X)"}, {"measurement": "pEC50", "setting": "[1]", "value": "5.00 to 6.00"}, {"measurement": "CFTR R1162X ACTIVITY Fold 10 μM G-418", "setting": "[2]", "value": "B′ (B′ = ≥5X to <10X)"}, {"measurement": "pEC50", "setting": "[2]", "value": "5.00 to 6.00"}]}
{"compound": "CC1(O)CCN(c2ncc(OCc3c(Cl)cccc3C(F)(F)F)cn2)CC1", "values": [{"measurement": "CFTR G542X ACTIVITY Fold 10 μM G-418", "setting": "[1]", "value": "A′ (A′ = ≥10X)"}, {"measurement": "pEC50", "setting": "[1]", "value": "> 6.00"}, {"measurement": "CFTR R1162X ACTIVITY Fold 10 μM G-418", "setting": "[2]", "value": "A′ (A′ = ≥10X)"}, {"measurement": "pEC50", "setting": "[2]", "value": "> 6.00"}]}
{"compound": "O=C1OCCN1c1ccc(OCc2c(Cl)cccc2Cl)cc1", "note": "[3-[4-[(2,6-dichlorophenyl)methoxy]phenyl]oxazolidin-2-one]", "values": [{"measurement": "CFTR G542X ACTIVITY Fold 10 μM G-418", "setting": "[1]", "value": "A′ (A′ = ≥10X)"}, {"measurement": "pEC50", "setting": "[1]", "value": "5.00 to 6.00"}, {"measurement": "CFTR R1162X ACTIVITY Fold 10 μM G-418", "setting": "[2]", "value": "B′ (B′ = ≥5X to <10X)"}, {"measurement": "pEC50", "setting": "[2]", "value": "5.00 to 6.00"}]}
{"compound": "OCCC1(O)CCN(c2ncc(OCc3c(Cl)cccc3Cl)cn2)CC1", "values": [{"measurement": "CFTR G542X ACTIVITY Fold 10 μM G-418", "setting": "[1]", "value": "A′ (A′ = ≥10X)"}, {"measurement": "pEC50", "setting": "[1]", "value": "> 6.00"}, {"measurement": "CFTR R1162X ACTIVITY Fold 10 μM G-418", "setting": "[2]", "value": "A′ (A′ = ≥10X)"}, {"measurement": "pEC50", "setting": "[2]", "value": "> 6.00"}]}
{"compound": "Cc1cccc(C(F)(F)F)c1COc1cnc(N2C(=O)CN(C)C2=O)nc1", "values": [{"measurement": "CFTR G542X ACTIVITY Fold 10 μM G-418", "setting": "[1]", "value": "B′ (B′ = ≥5X to <10X)"}, {"measurement": "pEC50", "setting": "[1]", "value": "< 5.00"}, {"measurement": "CFTR R1162X ACTIVITY Fold 10 μM G-418", "setting": "[2]", "value": "C′ (C′ = <5X)"}, {"measurement": "pEC50", "setting": "[2]", "value": "< 5.00"}]}
{"compound": "OCc1cn(-c2ccc(OCc3cc(Cl)cc(Cl)c3)cc2)cn1", "note": "[[1-[4-[(3,5-dichlorophenyl)methoxy]phenyl]imidazol-4-yl]methanol]", "values": [{"measurement": "pEC50", "setting": "[1]", "value": "5.00 to 6.00"}, {"measurement": "CFTR R1162X ACTIVITY Fold 10 μM G-418", "setting": "[2]", "value": "C′ (C′ = <5X)"}, {"measurement": "pEC50", "setting": "[2]", "value": "< 5.00"}]}
{"compound": "O=C1O[C@H](CO)CN1c1ccc(OCc2c(Cl)cccc2Cl)cc1", "note": "[(5S)-3-[4-[(2,6-dichlorophenyl)methoxy]phenyl]-5-(hydroxymethyl)oxazolidin-2-one]", "values": [{"measurement": "CFTR G542X ACTIVITY Fold 10 μM G-418", "setting": "[1]", "value": "B′ (B′ = ≥5X to <10X)"}, {"measurement": "pEC50", "setting": "[1]", "value": "5.00 to 6.00"}, {"measurement": "CFTR R1162X ACTIVITY Fold 10 μM G-418", "setting": "[2]", "value": "B′ (B′ = ≥5X to <10X)"}, {"measurement": "pEC50", "setting": "[2]", "value": "5.00 to 6.00"}]}
{"compound": "NC(=O)c1ccc(OCc2c(Cl)cccc2Cl)cn1", "note": "[5-[(2,6-dichlorophenyl)methoxy]pyridine-2-carboxamide]", "values": [{"measurement": "CFTR G542X ACTIVITY Fold 10 μM G-418", "setting": "[1]", "value": "A′ (A′ = ≥10X)"}, {"measurement": "pEC50", "setting": "[1]", "value": "5.00 to 6.00"}, {"measurement": "CFTR R1162X ACTIVITY Fold 10 μM G-418", "setting": "[2]", "value": "B′ (B′ = ≥5X to <10X)"}, {"measurement": "pEC50", "setting": "[2]", "value": "5.00 to 6.00"}]}
{"compound": "Cc1cccc(C(F)(F)F)c1COc1ccc(N2C(=O)NC(C(C)C)C2=O)cc1", "note": "(stereo not shown)", "values": [{"measurement": "CFTR G542X ACTIVITY Fold 10 μM G-418", "setting": "[1]", "value": "A′ (A′ = ≥10X)"}, {"measurement": "pEC50", "setting": "[1]", "value": "> 6.00"}, {"measurement": "CFTR R1162X ACTIVITY Fold 10 μM G-418", "setting": "[2]", "value": "A′ (A′ = ≥10X)"}, {"measurement": "pEC50", "setting": "[2]", "value": "5.00 to 6.00"}]}
{"compound": "Cc1cccc(C(F)(F)F)c1COc1cnc(-n2cc(-c3ccccn3)nn2)nc1", "values": [{"measurement": "CFTR G542X ACTIVITY Fold 10 μM G-418", "setting": "[1]", "value": "A′ (A′ = ≥10X)"}, {"measurement": "pEC50", "setting": "[1]", "value": "> 6.00"}, {"measurement": "CFTR R1162X ACTIVITY Fold 10 μM G-418", "setting": "[2]", "value": "B′ (B′ = ≥5X to <10X)"}, {"measurement": "pEC50", "setting": "[2]", "value": "> 6.00"}]}
{"compound": "NC(=O)[C@@H]1CCN(c2ncc(OCc3c(Cl)cccc3C(F)(F)F)cn2)C1", "values": [{"measurement": "CFTR G542X ACTIVITY Fold 10 μM G-418", "setting": "[1]", "value": "A′ (A′ = ≥10X)"}, {"measurement": "pEC50", "setting": "[1]", "value": "5.00 to 6.00"}, {"measurement": "CFTR R1162X ACTIVITY Fold 10 μM G-418", "setting": "[2]", "value": "A′ (A′ = ≥10X)"}, {"measurement": "pEC50", "setting": "[2]", "value": "5.00 to 6.00"}]}
{"compound": "Clc1cccc(Cl)c1COc1cnc(-n2cc(-c3ccccn3)nn2)nc1", "note": "[5-[(2,6-dichlorophenyl)methoxy]-2-[4-(2-pyridyl)triazol-1-yl]pyrimidine]", "values": [{"measurement": "CFTR G542X ACTIVITY Fold 10 μM G-418", "setting": "[1]", "value": "A′ (A′ = ≥10X)"}, {"measurement": "pEC50", "setting": "[1]", "value": "> 6.00"}, {"measurement": "CFTR R1162X ACTIVITY Fold 10 μM G-418", "setting": "[2]", "value": "A′ (A′ = ≥10X)"}, {"measurement": "pEC50", "setting": "[2]", "value": "> 6.00"}]}
{"compound": "Cc1cccc(C(F)(F)F)c1COc1cnc(N2CC(CO)OCC2=O)nc1", "note": "(stereo not shown)", "values": [{"measurement": "CFTR G542X ACTIVITY Fold 10 μM G-418", "setting": "[1]", "value": "A′ (A′ = ≥10X)"}, {"measurement": "pEC50", "setting": "[1]", "value": "5.00 to 6.00"}, {"measurement": "CFTR R1162X ACTIVITY Fold 10 μM G-418", "setting": "[2]", "value": "A′ (A′ = ≥10X)"}, {"measurement": "pEC50", "setting": "[2]", "value": "5.00 to 6.00"}]}
{"compound": "Cc1cccc(C(F)(F)F)c1COc1cnc(N2CCNC(=O)C2)nc1", "note": "[4-[5-[[2-methyl-6-(trifluoromethyl)phenyl]methoxy]pyrimidin-2-yl]piperazin-2-one]", "values": [{"measurement": "CFTR G542X ACTIVITY Fold 10 μM G-418", "setting": "[1]", "value": "A′ (A′ = ≥10X)"}, {"measurement": "pEC50", "setting": "[1]", "value": "> 6.00"}, {"measurement": "CFTR R1162X ACTIVITY Fold 10 μM G-418", "setting": "[2]", "value": "A′ (A′ = ≥10X)"}, {"measurement": "pEC50", "setting": "[2]", "value": "> 6.00"}]}
{"compound": "O=C(O)c1ncn(-c2ncc(OCc3c(Cl)cccc3C(F)(F)F)cn2)n1", "values": [{"measurement": "pEC50", "setting": "[1]", "value": "< 5.00"}, {"measurement": "pEC50", "setting": "[2]", "value": "< 5.00"}]}
